Data set [1] concerns F. nucleatum. Put plainly: Viability assessment (bactericidal activity). In kind it is cell-based. As to the method:
(§1) Two representative organisms, S. mutans and F. nucleatum, were used in this study. […] Aliquots of 4 ml of agent, prepared in sterile water, were placed into sterile test tubes and 1 ml of adjusted cells was added. The control consisted of 4 ml of PBS and 1 ml of cells. Samples were removed at 0, 15, 30, and 60 minutes, serial dilutions were performed, and the appropriate dilutions plated out. The plates were incubated at 37° C. under appropriate atmospheric conditions for up to 72 hours. Viable colony counts were determined and compared to nontreated control Percentage kill was calculated using the formula: ([…]×100. Log reduction was also calculated on Log10 transformed data. Effect of Berberine on Cell Surface Hydrophobicity

Data set [2] concerns S. mutans. Kind of data set: Viability assessment (bactericidal activity). In kind it is cell-based. As to the method: as §1
The test system of data set [3] is S. mutans. Kind of data set: Relative cell surface hydrophobicity (hexanes partition). As to conditions: berberine 500 μg ml^−1. In kind it is cell-based.
The subject of data set [4] is S. gordonii. Described as above. As to conditions: berberine 500 μg ml^−1. In kind it is cell-based.
The test system of data set [5] is F. nucleatum. The data set is described as above. In kind it is cell-based. As to conditions: berberine 500 μg ml^−1.
The test system of data set [6] is A. actinomycetemcomitans. The data set is described as above. In kind it is cell-based. As to conditions: berberine 500 μg ml^−1.
The subject of data set [7] is P. gingivalis. The description is as above. The settings on record: berberine 500 μg ml^−1. In kind it is cell-based.
Data set [8] deals with S. mutans. Kind of data set: Growth on agar with berberine and/or methylene blue (efflux screen). In kind it is cell-based.
Data set [9] deals with S. gordonii. Described as above. In kind it is cell-based.
The subject of data set [10] is Streptococcus mutans. Put plainly: MIC microdilution assay. In kind it is cell-based. The settings on record: Streptococcus mutans, S. mutans.
In data set [11] the test system is Streptococcus gordonii. Put plainly: MIC microdilution assay. In kind it is cell-based. The settings on record: Streptococcus gordonii, S. gordonii.
Data set [12] relates to Actinobacillus actinomycetemcomitans. Put plainly: MIC microdilution assay. In kind it is cell-based. As to conditions: Aggregatibacter actinomycetemcomitans. (In general: Dilution methods test growth across graded concentrations, often in twofold steps.)
Data set [13] concerns Fusobacterium nucleatum. Put plainly: MIC microdilution assay. In kind it is cell-based. As to conditions: Fusobacterium nucleatum, F. nucleatum.
Data set [14] has as its system Porphymonas gingivalis. Put plainly: MIC microdilution assay. In kind it is cell-based. As to conditions: Porphyromonas gingivalis, P. gingivalis.
For data set [15], the system named is Escherichia coli. Kind of data set: MIC microdilution assay. As to conditions: E. coli, agent alone, read-out: MIC of the antimicrobial agents alone. In kind it is cell-based.
The subject of data set [16] is Staphylococcus aureus. Put plainly: MIC microdilution assay. In kind it is cell-based. As to conditions: S. aureus, agent alone, read-out: MIC of the antimicrobial agents alone.
The subject of data set [17] is Pseudomonas aeruginosa. Put plainly: MIC microdilution assay. In kind it is cell-based. As to conditions: Pseudomonas aeruginosa; P. aeruginosa; agent alone; read-out: MIC of the antimicrobial agents alone.
The subject of data set [18] is Streptococcus mutans. Put plainly: Combination determination (FIC, MIC in combination). In kind it is cell-based. As to conditions: S. mutans. The method, then:
(§2) The alkaloids were tested in pair-wise combinations (fractional inhibitory concentrations, FIC) against all the bacteria to determine whether interactions were antagonistic (FIC>1), additive (0.5<FIC<1), or synergistic (FIC<0.5). The FIC was calculated by the following: (MIC Acombination/MIC Aalone)+(MIC Bcombination/MIC Balone). Where A represents compound 1 and B represents compound 2. […] In the case of A. actinomycetemcomitans and P. aeruginosa, CHX was used at 0.78 to 50 μg ml^−1. Berberine (B-CG and B-S) was used at concentrations 0.9 to 250 μg ml^−1. The antibacterial efficacy of berberine (1.95 to 500 μg ml^−1) was tested in combination against P. aeruginosa with CHX (0.78 to 50 μg ml^−1) (Sigma Chemicals) and the polymyxin antibiotic Col (0.04 to 25 μg ml^−1) (Sigma Chemicals). The plates were incubated for 24 hours.
CHX was diluted from left to right at 10 to 0.08 μg ml^−1 ([…] 1 to 8), berberine was diluted from top to bottom at 250 to 0.09 μg ml^−1 ([…] 1 to 8). Column 9 was the cell control, column 10 was berberine alone (250 to 0.09 μg ml^−1); and column 11 was CHX alone (10 to 0.08 μg ml^−1). Row H was the solvent control (8% DMSO, H1 to H8). Column 12 was the media blank. The dilution assay was designed such that A1 contained the highest concentration of both agents (berberine 250 μg ml^−1 and CHX 10 μg ml^−1). The final concentration of berberine in wells A2 to A8 was […]. The FIC value was calculated from well C6. FIC was calculated by: (MIC Acombination/MIC Aalone)+(MIC Bcombination/MIC Balone).

Data set [19] has as its system Actinobacillus actinomycetemcomitans. The data set is described as above. As to conditions: A. actinomycetemcomitans grown under anaerobic conditions; berberine (B-CG) combined with CHX, Tet or Dox; MIC of the named agent in the combination. In kind it is cell-based. As to the method: as §2
Data set [20] deals with Escherichia coli. The description is as above. In kind it is cell-based. The settings on record: E. coli; berberine (B-CG) combined with CHX, Tet or Dox; MIC of the named agent in the combination. The method, then:
as §2

Data set [21] concerns Fusobacterium nucleatum. The description is as above. In kind it is cell-based. The settings on record: F. nucleatum; berberine (B-CG) combined with CHX, Tet or Dox; MIC of the named agent in the combination. The method, then:
as §2

Data set [22] concerns Porphymonas gingivalis. The data set is described as above. In kind it is cell-based. The settings on record: P. gingivalis; berberine (B-CG) combined with CHX, Tet or Dox; MIC of the named agent in the combination. As to the method:
as §2

The subject of data set [23] is Pseudomonas aeruginosa. The data set is described as above. In kind it is cell-based. As to conditions: P. aeruginosa; berberine combined with CHX or Col; MIC of the named agent in the combination. As to the method:
as §2

Data set [24] relates to Staphylococcus aureus. Described as above. In kind it is cell-based. As to conditions: S. aureus; berberine (B-CG) combined with CHX, Tet or Dox; MIC of the named agent in the combination. The method, then:
as §2

Data set [25] concerns Streptococcus gordonii. The data set is described as above. In kind it is cell-based. The settings on record: S. gordonii; berberine (B-CG) combined with CHX, Tet or Dox; MIC of the named agent in the combination. The method, then: as §2
The test system of data set [26] is mice. The settings on record: cited from earlier work; for LD50: mice.
Data set [27] deals with rabbits. As to conditions: s.c.; cited from earlier work.
For data set [28] the following is noted: in vivo, po; cited from earlier work.
The conditions of data set [29]: rat, in vivo, iv; cited from earlier work.
The test system of data set [30] is patients with heart conditions. The settings on record: human, in vivo; cited from earlier work.
Data set [31] relates to A. actinomycetemcomitans. Kind of data set: Accumulation of berberine, fluorimetric assay. In kind it is cell-based. The settings on record: CCCP 100 μM added five minutes after berberine; FIG. 1. The method, then:
Accumulation of berberine in A. actinomycetemcomitans was evaluated using a fluorimetric assay (based in Giraud et al., 2000). Overnight cells were harvested as previously described, washed twice with 50 mM sodium phosphate buffer (pH 7), resuspended in the same buffer at a concentration of 1×10^9 CFU ml^−1. The cells were equilibrated for 10 minutes at 37° C. Berberine was added at a final concentration of 500 μg ml^−1. After addition of berberine, 0.5 ml samples were removed at different time intervals. Five minutes after the addition of berberine, the efflux pump inhibitor carbonyl cyanide m-chlorophenylhydrazone (CCCP) was added to the reaction mixture (final concentration 100 μM). The samples were immediately diluted with 1 ml ice-cold sodium phosphate buffer and then were centrifuged for 5 minutes at 560.0×g. The pellet was washed once with 1 ml ice-cold buffer and resuspended in 1 ml of 0.1 M glycine hydrochloride (pH 3) for at least 15 hours at room temperature. The fluorescence of the supernatant was measured (excitation 355 nm and emission 517 nm) with a spectrofluorimeter (Model 810/814, Photon Technology International, Monmouth Junction, N.J.).

The conditions of data set [32]: rats; oral; tritiated; cited from earlier work.
Data set [33] deals with wild type S. aureus. The settings on record: cited from earlier work.
The mark [34] stands for this setting: agar with 62.5, 125, 250 μg ml^−1, 48 hours at 37° C.
Where [35] appears, read: agent alone, read-out: MIC of the antimicrobial agents alone.

For orientation: LD50 means the dose expected to kill half of the subjects tested.

Each structure is given as a SMILES string. Read-outs that look alike come from different tables or passages of the source. Marks after values point to notes of the source that are not given here.

As for `COc1ccc2cc3[n+](cc2c1OC)CCc1cc2c(cc1-3)OCO2` [B-CG, berberine chloride], the “Viability after 60 min exposure (mean Log10 reduction of CFU)” value was found to be 2.77 Log10 in [1] (B-CG (500) μg ml^−1), 3.22 Log10 in [1] (B-CG (1000) μg ml^−1), 0 Log10 in data set [2] (B-CG (500) μg ml^−1) and 1 Log10 in data set [2] (B-CG (1000) μg ml^−1). In addition, the “Typical reduction scores on relative cell surface hydrophobicity” value is 14.8% in data set [3]; 26.1% in data set [4]; 29.9% in data set [5]; −31.6% in data set [6]; 26.7% in data set [7]. The “Concentration of B-CG in agar at which growth occurred” value in [8] (setting [34]) and in data set [9] (setting [34]) was 62.5 µg/mL throughout.
Consider `COc1ccc2cc3[n+](cc2c1OC)CCc1cc2c(cc1-3)OCO2` [Berberine, 5,6-dihydro-9,10-dimethoxybenzo[g]-1,3-benzodioxolo[5,6-a]quinolizinium], for which the MIC is 125 µg/mL in [10] (setting [35]); 125 µg/mL in data set [10] (Sm, read-out: MIC of Goldenseal Alkaloids Against Selected Oral Pathogens); 250 µg/mL in data set [11] (setting [35]); 250 µg/mL in [11] (Sg, read-out: MIC of Goldenseal Alkaloids Against Selected Oral Pathogens); over 500 µg/mL in data set [12] (A. actinomycetemcomitans grown under anaerobic conditions, agent alone, read-out: MIC of the antimicrobial agents alone); over 500 µg/mL in data set [12] (Aa, A. actinomycetemcomitans, read-out: MIC of Goldenseal Alkaloids Against Selected Oral Pathogens). The MIC in data set [13] (setting [35]) was 15.6 µg/mL; in data set [13] (Fn, read-out: MIC of Goldenseal Alkaloids Against Selected Oral Pathogens), 15.6 µg/mL; in [14] (setting [35]), 23.4 µg/mL; in [14] (Pg, read-out: MIC of Goldenseal Alkaloids Against Selected Oral Pathogens), 15.6 µg/mL; in data set [15] it was 250 µg/mL; in [16], 250 µg/mL. In [17], the MIC is over 500 µg/mL. For the same compound, the “MIC of the antimicrobial agents in combination” value in data set [18] (berberine (B-CG) combined with CHX, Tet or Dox, MIC of the named agent in the combination) was 62.5 µg/mL; in data set [19], 250 µg/mL; in data set [20] it was 125 µg/mL; in data set [21], 3.9 µg/mL; in data set [22] it was 7.81 µg/mL; in [23], 250** μg ml^−1. The “MIC of the antimicrobial agents in combination” value in data set [24] and in data set [25] was 62.5 µg/mL in each case. The “MIC alone used for the FIC” value in data set [18] (same plate, 48 h) is 125 µg/mL. In data set [18] (well C6, berberine (B-G) with CHX, 48 h), the “MIC in combination used for the FIC” value amounted to 31.25 µg/mL. For the same compound, the LD50 is recorded as 329 mg/kg in data set [26] (oral), 18 mg/kg in data set [26] (s.c.) and 100 mg/kg in data set [27]. Besides, the LD dose entry in data set [26] (mouse, in vivo, ip) was “greater than 500 mg/kg”. The “Further time to clear” value in data set [28] is given as “four”. In addition, in data set [28], the “Time to reach peak concentrations in plasma” value is given as “four”. Also, in data set [29], the Tissue distribution entry is on record as “highest concentrations of berberine were found in the kidneys”. For the same compound, the “Adverse effect in heart failure patients” value in data set [30] is recorded as “ventricular tachycardia in some subjects”.
As for `N#CC(C#N)=NNc1cccc(Cl)c1` [CCCP, carbonyl cyanide m-chlorophenylhydrazone], in [31], the “Effect on berberine accumulation” value is “very rapid and marked increase in berberine accumulation”.
`COc1ccc2cc3[n+](cc2c1OC)CCc1cc2c(cc1-3)OCO2` [berberine chloride]: in data set [32], the “Excretion after 48 hours” value was “majority of the administered dose had been excreted in feces”; the “Time of peak levels in liver and muscles” value was 12 h.
For `CN(C)c1ccc2nc3ccc(=[N+](C)C)cc-3sc2c1` [methylene blue (MB), methylene blue], the “Growth on agar in the presence of methylene blue” value in data set [8] (50 μg/ml) and in data set [9] (50 μg/ml) was “did not grow” throughout.
`COC(=O)[C@H]1[C@H]2C[C@@H]3c4[nH]c5cc(OC)ccc5c4CCN3C[C@H]2C[C@@H](OC(=O)c2cc(OC)c(OC)c(OC)c2)[C@@H]1OC` [reserpine]: the “Inhibition of the efflux of norfloxacin” value in [33] is reported as “at least four”.

These data come from patent publication US20070098649A1, “Method and composition for controlling oral pathogens” (priority 2004, published 2007).
